These are literature values, as cited in patent US20120121653A1, “Novel mometasone compositions and methods of making and using the same” (Elan Pharma International Limited, priority 2005, published 2012).

Where two headings read alike, the source gives them in different places.

Experiment in series [1]: not given
The source holds these as a separate data set.

With `C[C@@H]1C[C@H]2[C@@H]3CCC4=CC(=O)C=C[C@]4(C)[C@@]3(Cl)[C@@H](O)C[C@]2(C)[C@@]1(OC(=O)c1ccco1)C(=O)CCl` [Mometasone furoate monohydrate, 9,21-Dichloro-11, β,17-di-hydroxy-16^α-methylpregna-1,4-diene-3 ,20-done 17-(2 furoate)], the “partition coefficient between octanol and water” value was “greater than 5000”. In addition, in series [1] (in acetone), the solubility entry is “soluble”. The solubility entry in series [1] (in chloroform) is “soluble”. Besides, the solubility entry in series [1] (in ethanol) was “slightly soluble”. Further, in series [1] (in isopropanol), the solubility result is “slightly soluble”. In series [1] (in methanol), the solubility result is given as “slightly soluble”. Further, the solubility result in series [1] (in tetrahydrofuran) was “freely soluble”. For the same compound, in series [1] (in water), the solubility entry is on record as “practically insoluble”.
